For one assay, the system named is free VapC. Put plainly: Effect on RNase activity of free VapC. Particulars: substance added to free VapC. It counts as biochemical, Klebsiella pneumoniae. The protocol: (§1) The RNase activity of VapC and VapC mutants was confirmed using an RNase Alert Kit (Integrated DNA Technologies, Inc.). In this analysis, each well contained 50 pm of synthetic RNA with a fluorophore at one end and a quencher group at the other end. The quencher was separated when the prepared RNA was contacted by RNase. Then, fluorescence (RFU) generated during the 1 hour reaction period was detected using a SPECTRAmax GEMINI XS spectrometer (Molecular Devices) at 490 nm (excitation wavelength) and 520 nm (emission wavelength), respectively. For this analysis, the purified VapC and VapC mutants were treated with 10 mM EDTA to remove metal ions and exchanged with a purification buffer containing 10 mM Mg^2+. In each experiment, the concentrations of both VapC and VapC mutants were 10 μM. To prevent contamination, 40 units of RiboLock (Thermoscientific) were added to each well.
However, if the peptide contains the residues that interact with the nucleic acid binding site of VapC, which is the active site of VapC, the destructive ability is suppressed. Accordingly, in this example, the effect of the peptide of the present invention on the activity of free VapC was analyzed.
Through three tests, a total of 400 compounds were narrowed down to 25 according to the inhibitory efficacy ranking. […]

The next assay has as its target T1, VapBC complex (Klebsiella pneumoniae subsp. pneumoniae, UniProt A6TG81).
T1 sequence (A6TG81 1-127): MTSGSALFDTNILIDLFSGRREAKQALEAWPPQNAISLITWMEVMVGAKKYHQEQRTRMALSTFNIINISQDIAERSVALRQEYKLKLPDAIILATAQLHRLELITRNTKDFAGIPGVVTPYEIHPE
T1 sequence (A6TG80 1-82 partner): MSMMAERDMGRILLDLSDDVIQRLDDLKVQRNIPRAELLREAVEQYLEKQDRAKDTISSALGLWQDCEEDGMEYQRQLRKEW
Put plainly: VapBC complex disruption assay (RNase activity of VapC released from the complex). It counts as biochemical. The conditions noted are these: for VapBC complex disruption efficacy: 1 μM compound added to 10 μM VapBC complex, compared with peptides at 100 μM; for IC50: inhibition curves, 10 μM VapBC complex; for VapBC complex disruption efficacy (RNase activity relative to VapC): 100 μM peptide added to 10 μM VapBC complex. The procedure:
as §1
In this example, the peptide (100 μM) synthesized in Example 1 was added to the VapBC complex (10 μM) and the RFU of the activated VapC toxin was measured. Other experimental protocols were the same as those for the RNase activity test of VapC and VapC mutants (Experimental Method 5). Upon addition of the peptide of the present invention to the VapBC complex, the inhibitory efficacy of the peptide can be estimated by measuring the RNase activity generated by the free VapC released by the disruption of the VapBC complex.
Using a similar analysis method as in the design of peptides that activate VapC, the inhibitory effect of the compounds was ranked according to the degree of RNase activity by the free VapC released due to the disruption of the VapBC complex. That is, the small molecules were added to the VapBC complex (10 μM) and the efficacy of the small molecules to activate VapC was tested. Other experimental protocols were the same as those described for the peptide-induced complex disruption assay (Examples 2 and 3).

The next assay concerns the target T2, VapC (Klebsiella pneumoniae subsp. pneumoniae, UniProt A6TG81).
T2 sequence (A6TG81 1-127): T1 sequence (A6TG81 1-127)
Briefly: Isothermal titration calorimetry (ITC), binding to VapC. The protocol: ITC was performed using MicroCal200 (GE Healthcare). The concentrations of protein and DNA were determined using NanoDrop (Thermo) at 280 nm and 260 nm, respectively. Stock solutions of peptides and small molecules were prepared at appropriate concentrations. Titration was performed at 25° C. The data were calculated by subtracting the background and fitted to a single-site binding model using the provided source-based software with MicroCal200.
On the technique in general: ITC needs no label: the signal is the heat of the interaction.

Assay [1] addresses Klebsiella pneumoniae VapC toxin (kpn_04186) with N-terminal tag (Klebsiella pneumoniae (MGH78578)). Briefly: ITC, 25 °C, single-site binding model.
The mark [2] stands for this setting: 25° C., single-site binding model.
[3] abbreviates: 25° C., single-site binding model, read-out: Kd.
Setting [4] is: read-out: Kd (affinity to VapC).

Entries after “also recorded” stand apart in the source; their conditions may differ. Read-outs that look alike come from different tables or passages of the source.

From patent US20240101603A1, “ANTIBACTERIAL PEPTIDES AND COMPOUNDS TARGETING TOXIN-ANTITOXIN SYSTEM OF […], AND THEIR USE” (SEOUL NATIONAL UNIVERSITY R&DB FOUNDATION, priority 2021, published 2024) come the findings set out here.

For `NC(=O)NC(=O)CCN1CCC(C(=O)c2ccc(O)cc2)CC1` [Compound 1, N-carbamoyl-3-(4-(4-hydroxybenzoyl)piperidine-1-yl)propanamide], the “RNase activity of free VapC after treatment” value in the assay on free VapC is “did not affect the RNase activity of VapC”. In addition, on VapBC complex, the “VapBC complex disruption efficacy” value is recorded as “higher efficacy at 1 μM” and the IC50 was 420 nM. On VapC (25° C.), this molecule came in with a TΔS of 1.93 kcal/mol, a ΔG of -6.37 kcal/mol and a ΔH of -8.3 ± 0.03 kcal/mol. For the same molecule, the “n (the binding stoichiometry)” value at VapC (setting [2]) worked out at 0.98 ± 0.002. Moreover, the Kd on VapC (setting [3]) was 35 ± 0.4 nM.

For the molecule GMEYQRQL [VapB^71-78], at VapC (25° C.), the TΔS was -8.4 kcal/mol, the ΔG was -26.3 kcal/mol and the ΔH is -17.9 ± 0.07 kcal/mol. Further, the “n (the binding stoichiometry)” value on VapC (setting [2]) was 1.02 ± 0.002. In addition, at VapC (setting [4]), the Kd was determined as 110 nM.

Consider GMEYARQL [VapB^71-78, Q75A], for which the “VapBC complex disruption efficacy (RNase activity relative to VapC)” value at VapBC complex is “higher activity than VapB^71-78”. At VapC (25° C.), the TΔS was -1.53 kcal/mol, the ΔG is -12.33 kcal/mol and the ΔH is -10.8 ± 0.02 kcal/mol. At VapC (setting [2]), the “n (the binding stoichiometry)” value was 0.99 ± 0.001. In addition, on VapC (setting [4]), the Kd stood at 150 nM.

Regarding GMEAQRQL [VapB^71-78, Y74A], at VapBC complex, the “VapBC complex disruption efficacy (RNase activity relative to VapC)” value is “highest efficacy among all the designed peptides; also recorded: higher activity than VapB^71-78”. Also, on VapC (25° C.), the TΔS is -4.17 kcal/mol, the ΔG is -17.57 kcal/mol and the ΔH is -13.4 ± 0.02 kcal/mol. Further, at VapC (setting [2]), the “n (the binding stoichiometry)” value worked out at 0.99 ± 0.001. Moreover, the dissociation constant (Kd) on VapC (setting [4]) turned out to be 170 nM.

In assay [1], “Klebsiella pneumoniae VapB antitoxin (kpn_04185)” registered a Kd of 3 nM, a TΔS of -16.4 kcal/mol, a n (the binding stoichiometry) of 0.97 and a ΔH of -28.1 kcal/mol.

With GMEAARQL [VapB^71-78, Y74A, Q75A], the “VapBC complex disruption efficacy (RNase activity relative to VapC)” value in the assay with VapBC complex is on record as “lower efficacy than the VapB peptide in which either one was mutated to alanine”.

`CCC1Oc2cc(S(=O)(=O)N3CCCC(C(=O)Nc4ccc(F)cc4)C3)c(C)cc2NC1=O` (stereo not drawn) [Compound 2, 1-((2-ethyl-6-methyl-3-oxo-3,4-dihydro-2H-benzo[b][1,4]oxazine-7-yl)sulfonyl)-N-(4-fluorophenyl)piperidine-3-carboxamide]: the “RNase activity of free VapC after treatment” value with free VapC is recorded as “did not affect the RNase activity of VapC”. Further, at VapBC complex, the “VapBC complex disruption efficacy” value is reported as “higher efficacy at 1 μM” and the IC50 turned out to be 400 nM. On VapC (25° C.), this molecule gave a TΔS of 1.39 kcal/mol, a ΔG of -7.71 kcal/mol and a ΔH of -9.1 ± 0.06 kcal/mol. For the same molecule, the “n (the binding stoichiometry)” value at VapC (setting [2]) stood at 0.99 ± 0.004. For the same molecule, the Kd on VapC (setting [3]) is 22 ± 0.2 nM.

In assay [1], GMEAQRQL [Peptide VapB^71-78, Y74A] gave a Kd of 170 nM, a TΔS of -4.17 kcal/mol, a n (the binding stoichiometry) of 0.99 and a ΔH of -13.4 kcal/mol.

Turning to GMEYARQL [Peptide VapB^71-78, Q75A], in assay [1], the Kd was 150 nM, the TΔS is -1.53 kcal/mol, the n (the binding stoichiometry) was determined as 0.99 and the ΔG was -12.3 kcal/mol. For the same molecule, the ΔH in assay [1] was -10.8 kcal/mol.

Take GMEYQRQL [Peptide VapB^71-78]: in assay [1], the Kd was found to be 110 nM, the TΔS is -8.4 kcal/mol, the n (the binding stoichiometry) amounted to 1.02 and the ΔH is -17.9 kcal/mol.

Usually IC50 stands for the concentration at which inhibition is half-maximal. A word on the Kd: it is the free concentration of one partner at which half of the binding sites on the other are occupied at equilibrium, for simple one-to-one binding.
